The assay deals with P388 leukemia ip, CD2F1 mice, survival T/C. The experiment in a line: NCI In Vivo Anticancer Drug Screen. Data for tumor model P388 Leukemia (intraperitoneal) in CD2F1 (CDF1) mice. The note with it: endpoint: median survival time, higher = longer survival. The method, boiled down:
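Mice carrying the transplanted tumor received test compound or vehicle. Survival was recorded in each group, and the value is the treated-group measurement divided by that of the vehicle-treated control group.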

Setting [1] is: dose: 50.0 mg/kg/injection, schedule: Q01DX005 (ip), vehicle: Klucel (hydroxypropylcellulose) (HPC).
The mark [2] stands for this setting: dose: 100.0 mg/kg/injection, schedule: Q01DX005 (ip), vehicle: Klucel (hydroxypropylcellulose) (HPC).
The mark [3] stands for this setting: dose: 200.0 mg/kg/injection, schedule: Q01DX005 (ip), vehicle: Klucel (hydroxypropylcellulose) (HPC).
Where [4] appears, read: dose: 6.25 mg/kg/injection, schedule: Q01DX009 (ip), vehicle: saline with Tween-80.
Where [5] appears, read: dose: 12.5 mg/kg/injection, schedule: Q01DX009 (ip), vehicle: Klucel (hydroxypropylcellulose) (HPC).
The mark [6] stands for this setting: dose: 50.0 mg/kg/injection, schedule: Q01DX009 (ip), vehicle: saline with Tween-80.
Setting [7] is: dose: 100.0 mg/kg/injection, schedule: Q01DX009 (ip), vehicle: saline with Tween-80.
Setting [8] is: dose: 200.0 mg/kg/injection, schedule: Q01DX009 (ip), vehicle: saline with Tween-80.

“And” between values parts separate entries of the source, which are not always exact repeats. Identical values can stand only once. Inconclusive results and toxic doses are left out.

Consider `NCCCN=c1ccc2c3c1c(O)c1c(O)ccc(=O)c1c3[nH]n2CCNCCO`, for which the T/C was 165 % of control (dose: 3.12 mg/kg/injection, schedule: Q04DX002 (ip), vehicle: saline); 165 % of control (dose: 3.12 mg/kg/injection, schedule: Q04DX002 (ip), vehicle: water); 165 % of control (dose: 6.25 mg/kg/injection, schedule: Q04DX002 (ip), vehicle: saline); 172 % of control (dose: 6.25 mg/kg/injection, schedule: Q04DX002 (ip), vehicle: water); 196 % of control (dose: 9.72 mg/kg/injection, schedule: Q04DX002 (ip), vehicle: water); 190 % of control (dose: 12.5 mg/kg/injection, schedule: Q04DX002 (ip), vehicle: saline). Further, the T/C is 177 % of control (dose: 12.5 mg/kg/injection, schedule: Q04DX002 (ip), vehicle: water); 199 % of control (dose: 16.2 mg/kg/injection, schedule: Q04DX002 (ip), vehicle: water); 268 % of control (dose: 17.0 mg/kg/injection, schedule: Q01DX001 (ip), vehicle: water); 207 % of control (dose: 25.0 mg/kg/injection, schedule: Q04DX002 (ip), vehicle: saline); 250 % of control (dose: 25.0 mg/kg/injection, schedule: Q04DX002 (ip), vehicle: water); 245 % of control (dose: 27.0 mg/kg/injection, schedule: Q04DX002 (ip), vehicle: water). Further, the T/C is 323 % of control (dose: 45.0 mg/kg/injection, schedule: Q04DX002 (ip), vehicle: water); 254 % of control (dose: 50.0 mg/kg/injection, schedule: Q04DX002 (ip), vehicle: saline); 272 % of control (dose: 50.0 mg/kg/injection, schedule: Q04DX002 (ip), vehicle: water).
On to `CCOc1cc2c(cc1C(CC)c1ccc(OC)cc1)OCO2` (stereo unspecified), for which the T/C runs as follows: under setting [1], 104 % of control; under setting [2], 104 % of control; under setting [3], 99 % of control.
As to `C=CCC12C=C(OC)C(=O)C=C1OC(c1ccc3c(c1)OCO3)C2C` (stereo unspecified), the T/C is 104 % of control (dose: 16.25 mg/kg/injection, schedule: Q01DX005 (ip), vehicle: Klucel (hydroxypropylcellulose) (HPC)); 104 % of control (dose: 32.5 mg/kg/injection, schedule: Q01DX005 (ip), vehicle: Klucel (hydroxypropylcellulose) (HPC)); 94 % of control (dose: 65.0 mg/kg/injection, schedule: Q01DX005 (ip), vehicle: Klucel (hydroxypropylcellulose) (HPC)); 94 % of control (dose: 130.0 mg/kg/injection, schedule: Q01DX005 (ip), vehicle: Klucel (hydroxypropylcellulose) (HPC)).
With `O=C(O)C(/N=N\c1nn[nH]n1)/N=N\c1ncn[nH]1` (stereo unspecified), the T/C is 102 % of control (dose: 100.0 mg/kg/injection, schedule: Q04DX003 (ip), vehicle: Klucel (hydroxypropylcellulose) (HPC)); 108 % of control (dose: 200.0 mg/kg/injection, schedule: Q04DX003 (ip), vehicle: Klucel (hydroxypropylcellulose) (HPC)); 101 % of control (dose: 400.0 mg/kg/injection, schedule: Q04DX003 (ip), vehicle: Klucel (hydroxypropylcellulose) (HPC)).
In the case of `COc1cc2cc(-c3ccccc3)[n+](C)cc2cc1OC`, the T/C reads like this: (dose: 12.5 mg/kg/injection, schedule: Q01DX001 (ip), vehicle: saline) 95 % of control; (dose: 25.0 mg/kg/injection, schedule: Q01DX001 (ip), vehicle: saline) 110 % of control.
In the case of `Cc1nnc(NS(=O)(=O)c2ccc(N=Nc3cc(N=Nc4ccc(S(=O)(=O)Nc5nnc(C)s5)cc4)c4c(NC(=O)C(Cl)Cl)cccc4c3OC(=O)C(Cl)Cl)cc2)s1` (tested in a mixture with another compound), the T/C runs as follows: (dose: 3.12 mg/kg/injection, schedule: Q01DX009 (ip), vehicle: Klucel (hydroxypropylcellulose) (HPC)) 111 % of control; (dose: 6.25 mg/kg/injection, schedule: Q01DX009 (ip), vehicle: Klucel (hydroxypropylcellulose) (HPC)) 116 % of control; under setting [4], 109 % of control; under setting [5], 120 % of control; under setting [6], 99 % of control and 97 % of control; under setting [7], 100 % of control. Under setting [8], the T/C was 98 % of control.
For the compound `CCCCC(CC)COC1CCS(=O)(=O)C1` (stereo unspecified), the T/C reads like this: under setting [6], 100 % of control; under setting [7], 101 % of control; under setting [8], 95 % of control.
As to `[Br][Sn]([Br])([CH2][Sn]([Br])([Br])[c]1ccccc1)[c]1ccccc1`, the T/C under setting [1] was 97 % of control, the T/C under setting [2] is 99 % of control and the T/C under setting [3] was 89 % of control.
In the case of `O=C(C[n+]1ccc2ccccc2c1)c1ccc(-c2ccccc2)cc1`, the T/C is 118 % of control under setting [5]; 98 % of control and 116 % of control (dose: 25.0 mg/kg/injection, schedule: Q01DX009 (ip), vehicle: Klucel (hydroxypropylcellulose) (HPC)); 101 % of control and 115 % of control (dose: 50.0 mg/kg/injection, schedule: Q01DX009 (ip), vehicle: Klucel (hydroxypropylcellulose) (HPC)); 101 % of control and 122 % of control (dose: 100.0 mg/kg/injection, schedule: Q01DX009 (ip), vehicle: Klucel (hydroxypropylcellulose) (HPC)).
Turning to `NC(=S)N/N=C/C1=C(Cl)c2ccccc2C1`, the T/C by setting is: (dose: 6.25 mg/kg/injection, schedule: Q01DX005 (ip), vehicle: saline with Tween-80) 109 % of control; (dose: 12.5 mg/kg/injection, schedule: Q01DX005 (ip), vehicle: saline with Tween-80) 119 % of control.
Turning to `CCC(CC)C(=O)NN(C)C`, the T/C was 101 % of control (dose: 50.0 mg/kg/injection, schedule: Q01DX005 (ip), vehicle: saline) and 100 % of control (dose: 100.0 mg/kg/injection, schedule: Q01DX005 (ip), vehicle: saline).
On to `COc1cc2c(cc1C(C)c1cc(C(C)(C)C)c(O)c(C(C)(C)C)c1)OCO2` (stereo unspecified), for which the T/C reads like this: (dose: 50.0 mg/kg/injection, schedule: Q01DX005 (ip), vehicle: saline with Tween-80) 104 % of control; (dose: 100.0 mg/kg/injection, schedule: Q01DX005 (ip), vehicle: saline with Tween-80) 100 % of control; (dose: 200.0 mg/kg/injection, schedule: Q01DX005 (ip), vehicle: saline with Tween-80) 94 % of control.
Regarding `COc1ccc(NC(N)=S)cc1OC`, the T/C was 95 % of control (dose: 50.0 mg/kg/injection, schedule: Q04DX003 (ip), vehicle: saline with Tween-80); 88 % of control (dose: 100.0 mg/kg/injection, schedule: Q04DX003 (ip), vehicle: saline with Tween-80); 88 % of control (dose: 200.0 mg/kg/injection, schedule: Q04DX003 (ip), vehicle: saline with Tween-80).
Regarding `O=CC(Br)C(Br)c1ccccc1` (stereo unspecified), the T/C under setting [4] was 122 % of control; the T/C (dose: 6.25 mg/kg/injection, schedule: Q04DX003 (ip), vehicle: saline with Tween-80) is 109 % of control; the T/C (dose: 12.5 mg/kg/injection, schedule: Q01DX009 (ip), vehicle: saline with Tween-80) is 109 % of control; the T/C (dose: 12.5 mg/kg/injection, schedule: Q04DX003 (ip), vehicle: saline with Tween-80) is 109 % of control; the T/C (dose: 25.0 mg/kg/injection, schedule: Q01DX009 (ip), vehicle: saline with Tween-80) is 100 % of control; the T/C (dose: 25.0 mg/kg/injection, schedule: Q04DX003 (ip), vehicle: saline with Tween-80) is 113 % of control.
With `CN(C)c1ccc2nc3c(C(=O)O)cc(=O)c(O)c-3oc2c1`, the T/C under setting [1] is 103 % of control and the T/C under setting [2] was 108 % of control.
In the case of `COC(=O)/C=c1\sc2n(c1=O)CCCCN=2`, the T/C is 86 % of control (dose: 60.0 mg/kg/injection, schedule: Q01DX005 (ip), vehicle: Klucel (hydroxypropylcellulose) (HPC)); 93 % of control (dose: 120.0 mg/kg/injection, schedule: Q01DX005 (ip), vehicle: Klucel (hydroxypropylcellulose) (HPC)); 100 % of control (dose: 240.0 mg/kg/injection, schedule: Q01DX005 (ip), vehicle: Klucel (hydroxypropylcellulose) (HPC)).
As to `Cc1nc(Nc2c3ccccc3nc3ccccc23)sc1C`, the T/C was 103 % of control (dose: 12.5 mg/kg/injection, schedule: Q04DX002 (ip), vehicle: distilled water + Tween-80); 100 % of control (dose: 25.0 mg/kg/injection, schedule: Q04DX002 (ip), vehicle: distilled water + Tween-80); 88 % of control (dose: 50.0 mg/kg/injection, schedule: Q04DX002 (ip), vehicle: distilled water + Tween-80); 87 % of control (dose: 100.0 mg/kg/injection, schedule: Q04DX002 (ip), vehicle: distilled water + Tween-80); 90 % of control (dose: 200.0 mg/kg/injection, schedule: Q04DX002 (ip), vehicle: distilled water + Tween-80); 98 % of control (dose: 400.0 mg/kg/injection, schedule: Q04DX002 (ip), vehicle: distilled water + Tween-80).

These data come from PubChem BioAssay AID330 (DTP/NCI, 2004).
